Earlier results as cited in patent US6960574B2, “Antagonists of RF-amide neuropeptides” (University of Florida, priority 2002, dated 2005).
Ends that are not written are not given here.

What was measured:
[1] = system: abstinence-like signs induced by neuropeptide FF (1); conditions: 15 μg i.c.v.; cited from earlier work
[2] = system: opiate abstinence syndrome; conditions: 2 μg i.c.v.; cited from earlier work

**Q.** For “Phe-Leu-Phe-Gln-Pro-Gln-Arg-Phe-NH2 (FLFQPQRF-NH2) [Compound 1, endogenous neuropeptide FF]”, which “quasi-morphine-abstinence syndrome (QMAS) in opiate-naive rats” value [1] is on record?
**A.** induces

**Q.** And the “opiate abstinence syndrome in morphine-dependent rats” value [2]?
**A.** precipitates
